Activity calls are given as the source filed them. The rule behind the calls is not given here.
Tested on: CCRIS mutagenicity, Ames/micronucleus/aberration tests
Experiment: CCRIS mutagenicity studies

`CCC(C)(C)c1ccc(O)cc1` was tested, and the mutagenic call (Test System: AMES SALMONELLA TYPHIMURIUM, Strain/Indicator: TA97, Metabolic Activation: HAMSTER, LIVER, S-9, AROCLOR 1254 (10%), Method: PREINCUBATION) was “inactive; negative”, the mutagenic call (Test System: AMES SALMONELLA TYPHIMURIUM, Strain/Indicator: TA97, Metabolic Activation: HAMSTER, LIVER, S-9, AROCLOR 1254 (30%), Method: PREINCUBATION) was “inactive; negative” and the mutagenic call (Test System: AMES SALMONELLA TYPHIMURIUM, Strain/Indicator: TA97, Metabolic Activation: NONE, Method: PREINCUBATION) was “inactive; negative”. The mutagenic call (Test System: AMES SALMONELLA TYPHIMURIUM, Strain/Indicator: TA97, Metabolic Activation: RAT, LIVER, S-9, AROCLOR 1254 (10%), Method: PREINCUBATION) was “inactive; negative”, the mutagenic call (Test System: AMES SALMONELLA TYPHIMURIUM, Strain/Indicator: TA97, Metabolic Activation: RAT, LIVER, S-9, AROCLOR 1254 (30%), Method: PREINCUBATION) was “inactive; negative” and the mutagenic call (Test System: AMES SALMONELLA TYPHIMURIUM, Strain/Indicator: TA98, Metabolic Activation: HAMSTER, LIVER, S-9, AROCLOR 1254 (10%), Method: PREINCUBATION) was “inactive; negative”. The mutagenic call (Test System: AMES SALMONELLA TYPHIMURIUM, Strain/Indicator: TA98, Metabolic Activation: HAMSTER, LIVER, S-9, AROCLOR 1254 (30%), Method: PREINCUBATION) was “inactive; negative”, the mutagenic call (Test System: AMES SALMONELLA TYPHIMURIUM, Strain/Indicator: TA98, Metabolic Activation: NONE, Method: PREINCUBATION) was “inactive; negative” and the mutagenic call (Test System: AMES SALMONELLA TYPHIMURIUM, Strain/Indicator: TA98, Metabolic Activation: RAT, LIVER, S-9, AROCLOR 1254 (10%), Method: PREINCUBATION) was “inactive; negative”. For the same molecule, the mutagenic call (Test System: AMES SALMONELLA TYPHIMURIUM, Strain/Indicator: TA98, Metabolic Activation: RAT, LIVER, S-9, AROCLOR 1254 (30%), Method: PREINCUBATION) was “inactive; negative”, the mutagenic call (Test System: AMES SALMONELLA TYPHIMURIUM, Strain/Indicator: TA100, Metabolic Activation: HAMSTER, LIVER, S-9, AROCLOR 1254 (10%), Method: PREINCUBATION) was “inactive; negative” and the mutagenic call (Test System: AMES SALMONELLA TYPHIMURIUM, Strain/Indicator: TA100, Metabolic Activation: HAMSTER, LIVER, S-9, AROCLOR 1254 (30%), Method: PREINCUBATION) was “inactive; negative”. For the same molecule, the mutagenic call (Test System: AMES SALMONELLA TYPHIMURIUM, Strain/Indicator: TA100, Metabolic Activation: NONE, Method: PREINCUBATION) was “inactive; negative”, the mutagenic call (Test System: AMES SALMONELLA TYPHIMURIUM, Strain/Indicator: TA100, Metabolic Activation: RAT, LIVER, S-9, AROCLOR 1254 (10%), Method: PREINCUBATION) was “inactive; negative” and the mutagenic call (Test System: AMES SALMONELLA TYPHIMURIUM, Strain/Indicator: TA100, Metabolic Activation: RAT, LIVER, S-9, AROCLOR 1254 (30%), Method: PREINCUBATION) was “inactive; negative”. For the same molecule, the mutagenic call (Test System: AMES SALMONELLA TYPHIMURIUM, Strain/Indicator: TA1535, Metabolic Activation: HAMSTER, LIVER, S-9, AROCLOR 1254 (10%), Method: PREINCUBATION) was “inactive; negative”, the mutagenic call (Test System: AMES SALMONELLA TYPHIMURIUM, Strain/Indicator: TA1535, Metabolic Activation: HAMSTER, LIVER, S-9, AROCLOR 1254 (30%), Method: PREINCUBATION) was “inactive; negative” and the mutagenic call (Test System: AMES SALMONELLA TYPHIMURIUM, Strain/Indicator: TA1535, Metabolic Activation: NONE, Method: PREINCUBATION) was “inactive; negative”. For the same molecule, the mutagenic call (Test System: AMES SALMONELLA TYPHIMURIUM, Strain/Indicator: TA1535, Metabolic Activation: RAT, LIVER, S-9, AROCLOR 1254 (10%), Method: PREINCUBATION) was “inactive; negative” and the mutagenic call (Test System: AMES SALMONELLA TYPHIMURIUM, Strain/Indicator: TA1535, Metabolic Activation: RAT, LIVER, S-9, AROCLOR 1254 (30%), Method: PREINCUBATION) was “inactive; negative”.

For `C=C(C)C(=O)OCCOCCOCCOC(=O)C(=C)C`, the mutagenic call (Test System: AMES SALMONELLA TYPHIMURIUM, Strain/Indicator: TA97A, Metabolic Activation: NONE, Method: STANDARD PLATE) was “inactive; negative”, the mutagenic call (Test System: AMES SALMONELLA TYPHIMURIUM, Strain/Indicator: TA97A, Metabolic Activation: RAT, LIVER, S-9, PHENOBARBITAL AND BETA-NAPHTHAFLAVONE, Method: STANDARD PLATE) was “inactive; negative” and the mutagenic call (Test System: AMES SALMONELLA TYPHIMURIUM, Strain/Indicator: TA98, Metabolic Activation: NONE, Method: STANDARD PLATE) was “inactive; negative”. The mutagenic call (Test System: AMES SALMONELLA TYPHIMURIUM, Strain/Indicator: TA98, Metabolic Activation: RAT, LIVER, S-9, PHENOBARBITAL AND BETA-NAPHTHAFLAVONE, Method: STANDARD PLATE) was “inactive; negative”, the mutagenic call (Test System: AMES SALMONELLA TYPHIMURIUM, Strain/Indicator: TA100, Metabolic Activation: NONE, Method: STANDARD PLATE) was “inactive; negative” and the mutagenic call (Test System: AMES SALMONELLA TYPHIMURIUM, Strain/Indicator: TA100, Metabolic Activation: RAT, LIVER, S-9, PHENOBARBITAL AND BETA-NAPHTHAFLAVONE, Method: STANDARD PLATE) was “inactive; negative”. For the same molecule, the mutagenic call (Test System: AMES SALMONELLA TYPHIMURIUM, Strain/Indicator: TA102, Metabolic Activation: NONE, Method: STANDARD PLATE) was “inactive; negative”, the mutagenic call (Test System: AMES SALMONELLA TYPHIMURIUM, Strain/Indicator: TA102, Metabolic Activation: RAT, LIVER, S-9, PHENOBARBITAL AND BETA-NAPHTHAFLAVONE, Method: STANDARD PLATE) was “inactive; negative” and the mutagenic call (Test System: CHINESE HAMSTER V-79, Strain/Indicator: V-79 (HPRT)/6-THIOGUANINE, Metabolic Activation: NONE) was “active; positive”. The mutagenic call (Test System: CHINESE HAMSTER V-79, Strain/Indicator: V-79 (HPRT)/6-THIOGUANINE, Metabolic Activation: R, L, S-9, PHENOBARBITAL AND BETA-NAPHTHOFLAVONE) was “inactive; negative”.

— PubChem BioAssay AID1259407 (Chemical Carcinogenesis Research Information System (CCRIS), 2018)
